This note sets out measurements from ChEMBL document CHEMBL1157700, “Synthesis of 3-[(N-carboalkoxy)ethylamino]-indazole-dione derivatives and their biological activities on human liver carbonyl reductase” (Bioorg Med Chem, 2010).

This experiment relates to A549. Nature of the experiment: Potentiation of daunorubicin-induced cytotoxicity against human A549 cells. The experiment is classed as functional.

Take `CNc1ncnc2c1c(-c1cccc(O)c1)cn2C(C)C`: the Activity is 25%.
